Test [1] has as its target T1, Peroxisomal acyl-coenzyme A oxidase 3 (Homo sapiens, UniProt O15254).
T1 sequence (O15254 whole entry): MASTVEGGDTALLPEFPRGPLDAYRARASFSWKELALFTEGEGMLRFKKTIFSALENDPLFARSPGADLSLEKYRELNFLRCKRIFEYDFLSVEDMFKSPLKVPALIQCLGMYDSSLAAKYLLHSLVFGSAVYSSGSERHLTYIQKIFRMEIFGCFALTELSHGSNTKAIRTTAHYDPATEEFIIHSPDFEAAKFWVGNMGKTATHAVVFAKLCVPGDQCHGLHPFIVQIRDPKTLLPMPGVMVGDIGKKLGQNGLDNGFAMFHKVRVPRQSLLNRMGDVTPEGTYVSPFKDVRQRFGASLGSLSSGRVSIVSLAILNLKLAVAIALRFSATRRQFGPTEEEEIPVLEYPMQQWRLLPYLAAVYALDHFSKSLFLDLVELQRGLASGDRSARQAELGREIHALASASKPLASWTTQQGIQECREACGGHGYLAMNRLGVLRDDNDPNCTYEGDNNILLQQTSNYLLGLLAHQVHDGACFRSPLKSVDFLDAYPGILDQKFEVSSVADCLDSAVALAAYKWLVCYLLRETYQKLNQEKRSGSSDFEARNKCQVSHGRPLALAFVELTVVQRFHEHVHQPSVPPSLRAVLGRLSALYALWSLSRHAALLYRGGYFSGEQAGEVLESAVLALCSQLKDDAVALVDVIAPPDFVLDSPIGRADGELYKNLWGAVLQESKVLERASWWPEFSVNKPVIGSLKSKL

A further test concerns the target Ephrin type-A receptor 5 (Homo sapiens, UniProt P54756).
Test [2] deals with Calcium/calmodulin-dependent protein kinase type II subunit delta (Homo sapiens, UniProt Q13557).
The target of test [3] is T2, Breakpoint cluster region protein (Homo sapiens, UniProt P11274).
T2 sequence (P11274 whole entry): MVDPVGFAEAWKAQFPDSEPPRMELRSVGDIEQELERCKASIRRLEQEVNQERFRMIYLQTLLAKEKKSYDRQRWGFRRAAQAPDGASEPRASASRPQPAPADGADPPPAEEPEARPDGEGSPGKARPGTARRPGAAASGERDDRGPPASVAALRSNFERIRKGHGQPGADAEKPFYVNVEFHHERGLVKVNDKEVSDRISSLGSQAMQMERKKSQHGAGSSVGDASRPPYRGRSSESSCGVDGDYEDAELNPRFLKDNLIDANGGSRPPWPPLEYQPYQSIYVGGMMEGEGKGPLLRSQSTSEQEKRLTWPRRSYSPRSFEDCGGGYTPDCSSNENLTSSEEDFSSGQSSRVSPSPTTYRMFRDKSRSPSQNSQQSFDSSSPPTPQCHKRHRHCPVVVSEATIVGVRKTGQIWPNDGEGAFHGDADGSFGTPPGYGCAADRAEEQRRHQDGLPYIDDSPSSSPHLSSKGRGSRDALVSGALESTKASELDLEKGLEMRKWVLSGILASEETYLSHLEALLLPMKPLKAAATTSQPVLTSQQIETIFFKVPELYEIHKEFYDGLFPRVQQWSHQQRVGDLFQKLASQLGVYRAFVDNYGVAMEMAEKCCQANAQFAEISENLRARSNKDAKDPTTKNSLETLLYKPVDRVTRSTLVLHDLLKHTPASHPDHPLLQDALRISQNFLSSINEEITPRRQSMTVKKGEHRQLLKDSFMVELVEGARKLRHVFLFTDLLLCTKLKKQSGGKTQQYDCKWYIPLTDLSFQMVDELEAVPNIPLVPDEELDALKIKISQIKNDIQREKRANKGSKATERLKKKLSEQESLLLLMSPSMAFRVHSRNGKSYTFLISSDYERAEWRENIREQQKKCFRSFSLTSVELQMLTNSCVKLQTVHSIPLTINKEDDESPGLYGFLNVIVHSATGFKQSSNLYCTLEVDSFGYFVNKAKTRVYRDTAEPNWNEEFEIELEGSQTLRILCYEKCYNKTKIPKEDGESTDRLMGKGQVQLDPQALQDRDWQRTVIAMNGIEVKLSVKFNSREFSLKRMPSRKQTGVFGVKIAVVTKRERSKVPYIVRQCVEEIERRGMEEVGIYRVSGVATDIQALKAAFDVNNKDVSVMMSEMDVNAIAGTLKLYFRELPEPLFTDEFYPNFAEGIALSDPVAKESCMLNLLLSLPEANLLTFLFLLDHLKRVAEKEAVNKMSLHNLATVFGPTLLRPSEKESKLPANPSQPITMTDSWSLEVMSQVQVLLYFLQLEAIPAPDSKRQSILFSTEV

For test [4], the target named is Tyrosine-protein kinase CSK (Homo sapiens, UniProt P41240).
Test [5] deals with T3, ATP-dependent 6-phosphofructokinase, platelet type (Homo sapiens, UniProt Q01813).
T3 sequence (Q01813 whole entry): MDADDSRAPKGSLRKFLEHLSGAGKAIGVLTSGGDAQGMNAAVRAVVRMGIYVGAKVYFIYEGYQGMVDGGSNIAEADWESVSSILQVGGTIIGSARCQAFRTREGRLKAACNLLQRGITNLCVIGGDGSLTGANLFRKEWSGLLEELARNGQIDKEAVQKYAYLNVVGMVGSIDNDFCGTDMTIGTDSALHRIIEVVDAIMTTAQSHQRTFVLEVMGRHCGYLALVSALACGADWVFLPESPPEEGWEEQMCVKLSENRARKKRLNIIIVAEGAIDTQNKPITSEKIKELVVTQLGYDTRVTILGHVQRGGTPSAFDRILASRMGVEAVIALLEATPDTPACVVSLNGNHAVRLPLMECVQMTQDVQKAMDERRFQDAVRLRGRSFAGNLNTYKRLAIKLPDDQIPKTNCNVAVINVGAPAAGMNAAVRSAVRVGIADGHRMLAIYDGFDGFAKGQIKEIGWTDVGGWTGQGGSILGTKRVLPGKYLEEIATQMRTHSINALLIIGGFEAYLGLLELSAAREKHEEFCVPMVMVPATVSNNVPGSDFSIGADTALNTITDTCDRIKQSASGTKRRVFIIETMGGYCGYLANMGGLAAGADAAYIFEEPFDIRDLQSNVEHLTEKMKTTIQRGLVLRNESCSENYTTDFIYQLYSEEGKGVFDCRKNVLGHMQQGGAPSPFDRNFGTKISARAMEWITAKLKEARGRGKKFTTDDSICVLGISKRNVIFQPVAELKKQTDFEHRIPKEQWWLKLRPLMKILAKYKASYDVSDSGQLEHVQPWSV

Test [6] has as its target Dual specificity protein kinase CLK1 (Homo sapiens, UniProt P49759).

The values that follow come from ChEMBL document CHEMBL3991601, “The target landscape of clinical kinase drugs” (Science, 2017).

The structures appear in SMILES notation. Calls of active or inactive are those of the source. Cut-off read from the data, not from the text of the source, for most assays here: actives have a measured Kd and inactives only a lower limit.

As usually defined, the Kd is the free concentration of one partner at which half of the binding sites on the other are occupied at equilibrium, for simple one-to-one binding.
Note: in the data inactive means no Kd found up to 30 µM.

Tyrosine-protein kinase CSK, sequence (P41240 whole entry): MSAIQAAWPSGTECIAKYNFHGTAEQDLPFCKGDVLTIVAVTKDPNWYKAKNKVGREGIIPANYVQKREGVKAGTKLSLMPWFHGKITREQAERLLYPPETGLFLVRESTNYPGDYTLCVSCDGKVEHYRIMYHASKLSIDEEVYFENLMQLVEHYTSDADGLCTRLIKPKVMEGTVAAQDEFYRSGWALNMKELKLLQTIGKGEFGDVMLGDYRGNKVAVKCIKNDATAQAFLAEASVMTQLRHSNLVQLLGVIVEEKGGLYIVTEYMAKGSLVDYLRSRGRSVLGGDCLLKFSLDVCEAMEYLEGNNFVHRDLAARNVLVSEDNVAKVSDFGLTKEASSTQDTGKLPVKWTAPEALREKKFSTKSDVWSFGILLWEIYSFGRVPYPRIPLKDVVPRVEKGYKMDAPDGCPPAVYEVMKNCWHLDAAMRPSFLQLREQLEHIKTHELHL
Calcium/calmodulin-dependent protein kinase type II subunit delta, sequence (Q13557 whole entry): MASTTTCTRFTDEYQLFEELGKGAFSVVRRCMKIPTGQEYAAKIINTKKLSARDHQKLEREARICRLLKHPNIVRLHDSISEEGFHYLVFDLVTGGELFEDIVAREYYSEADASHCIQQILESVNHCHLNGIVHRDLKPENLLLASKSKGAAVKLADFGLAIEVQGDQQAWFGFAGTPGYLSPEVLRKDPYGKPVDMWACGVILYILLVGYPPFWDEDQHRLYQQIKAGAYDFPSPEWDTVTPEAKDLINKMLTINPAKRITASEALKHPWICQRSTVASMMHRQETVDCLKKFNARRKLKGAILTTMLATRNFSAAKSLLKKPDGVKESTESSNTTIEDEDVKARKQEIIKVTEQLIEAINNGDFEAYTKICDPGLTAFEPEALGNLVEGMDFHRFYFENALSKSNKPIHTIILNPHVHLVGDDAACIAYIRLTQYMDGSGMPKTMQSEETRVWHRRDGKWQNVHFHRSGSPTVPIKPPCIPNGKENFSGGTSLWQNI
Ephrin type-A receptor 5, sequence (P54756 whole entry): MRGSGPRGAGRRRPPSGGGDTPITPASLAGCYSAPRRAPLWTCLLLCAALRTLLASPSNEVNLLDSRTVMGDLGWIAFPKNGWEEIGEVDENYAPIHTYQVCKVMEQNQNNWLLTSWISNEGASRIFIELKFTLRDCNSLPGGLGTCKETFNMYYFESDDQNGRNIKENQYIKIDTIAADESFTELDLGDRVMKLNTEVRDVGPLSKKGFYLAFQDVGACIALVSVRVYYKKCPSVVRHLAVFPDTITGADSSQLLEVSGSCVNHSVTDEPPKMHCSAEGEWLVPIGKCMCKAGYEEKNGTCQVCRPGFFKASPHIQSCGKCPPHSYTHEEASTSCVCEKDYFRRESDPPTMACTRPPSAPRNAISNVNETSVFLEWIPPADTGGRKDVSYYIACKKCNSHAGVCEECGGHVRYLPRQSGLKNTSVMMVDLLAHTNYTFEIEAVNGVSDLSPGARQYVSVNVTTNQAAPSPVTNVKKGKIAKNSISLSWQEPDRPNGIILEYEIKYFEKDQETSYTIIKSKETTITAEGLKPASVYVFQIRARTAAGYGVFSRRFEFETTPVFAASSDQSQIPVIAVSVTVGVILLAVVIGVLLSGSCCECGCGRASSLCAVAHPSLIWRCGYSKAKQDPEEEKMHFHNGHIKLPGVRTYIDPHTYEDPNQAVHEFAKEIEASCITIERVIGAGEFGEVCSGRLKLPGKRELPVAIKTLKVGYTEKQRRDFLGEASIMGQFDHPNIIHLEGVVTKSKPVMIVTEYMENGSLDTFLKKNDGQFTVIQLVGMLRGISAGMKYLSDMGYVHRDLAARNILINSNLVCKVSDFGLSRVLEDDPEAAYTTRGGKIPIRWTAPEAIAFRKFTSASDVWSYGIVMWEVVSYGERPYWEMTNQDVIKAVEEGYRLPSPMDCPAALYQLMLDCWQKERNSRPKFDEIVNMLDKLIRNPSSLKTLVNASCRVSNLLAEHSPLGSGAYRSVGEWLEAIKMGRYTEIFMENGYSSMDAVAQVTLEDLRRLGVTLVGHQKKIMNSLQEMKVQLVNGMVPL
Dual specificity protein kinase CLK1, sequence (P49759 whole entry): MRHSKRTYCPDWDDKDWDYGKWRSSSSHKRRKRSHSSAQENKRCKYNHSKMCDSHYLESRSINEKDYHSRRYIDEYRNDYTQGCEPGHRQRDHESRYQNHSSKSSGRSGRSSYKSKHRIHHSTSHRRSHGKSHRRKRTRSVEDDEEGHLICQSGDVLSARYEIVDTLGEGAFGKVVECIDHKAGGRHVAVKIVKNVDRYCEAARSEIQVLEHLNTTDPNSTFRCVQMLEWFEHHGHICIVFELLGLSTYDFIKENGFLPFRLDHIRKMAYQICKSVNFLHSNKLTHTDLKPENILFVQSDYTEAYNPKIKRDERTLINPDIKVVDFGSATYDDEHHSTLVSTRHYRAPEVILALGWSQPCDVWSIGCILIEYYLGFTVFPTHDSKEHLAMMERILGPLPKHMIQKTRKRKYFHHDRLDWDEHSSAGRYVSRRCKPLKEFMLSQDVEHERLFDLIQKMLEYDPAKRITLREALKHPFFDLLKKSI

As for `C[C@@H](Oc1cc(C(=O)Nc2ccc(C(=O)N3CCN(C)CC3)cc2)nnc1N)c1c(Cl)ccc(F)c1Cl`, the Kd (in test [1]; at Ephrin type-A receptor 5; in test [2]; in test [3]; in test [4]) was > 30 µM (inactive) in each case.

As for `C[C@H]1CNCCCN1S(=O)(=O)c1cccc2cncc(F)c12`, the Kd (in test [5]; in test [1]; at Ephrin type-A receptor 5; in test [2]; in test [3]; in test [4]) was > 30 µM (inactive) in each case.

Turning to `Nc1ncnc2c1c(-c1cccc(OCc3ccccc3)c1)cn2[C@H]1C[C@@H](CN2CCC2)C1` [AEW-541], the Kd (in test [5]; in test [1]; on Ephrin type-A receptor 5; in test [2]; in test [3]; in test [4]) was > 30 µM (inactive) in each case.

For `COc1cc(Nc2ncc3c(n2)-c2ccc(Cl)cc2C(c2c(F)cccc2OC)=NC3)ccc1C(=O)O` [ALISERTIB], the Kd (in test [6]; in test [5]; in test [1]; on Ephrin type-A receptor 5; in test [3]; in test [4]) was > 30 µM (inactive) in each case.

Consider `CNC(=O)c1ccccc1Sc1ccc2c(/C=C/c3ccccn3)n[nH]c2c1` [AXITINIB], for which the figures for the Kd in test [5], in test [1] and in test [3] were > 30 µM (inactive), > 30 µM (inactive) and 0.188 µM (active), respectively.

As to `COc1cc([C@@H]2c3cc4c(cc3[C@H](O)[C@H]3COC(=O)[C@@H]23)OCO4)cc(OC)c1OC` [AXL-1717], the Kd (in test [5]; in test [1]; at Ephrin type-A receptor 5; in test [2]; in test [3]; in test [4]) was > 30 µM (inactive) each time.

Turning to `Cn1cc(C2=C(c3cn(C4CCN(Cc5ccccn5)CC4)c4ccccc34)C(=O)NC2=O)c2ccccc21` [ENZASTAURIN], the Kd in test [5], in test [1] and in test [3] was > 30 µM (inactive) each time.

For `Cc1nc2cc(-n3ncc(C(=O)c4cc5ccccc5[nH]4)c3N)ccc2[nH]1` [FGFR INHIBITOR DEBIO 1347], the Kd (in test [5]; in test [1]; at Ephrin type-A receptor 5; in test [2]; in test [3]; in test [4]) was > 30 µM (inactive) throughout.

Turning to `O=C(Nc1nc2cccc(-c3ccc(CN4CCS(=O)(=O)CC4)cc3)n2n1)C1CC1` [FILGOTINIB], the Kd (in test [5]; in test [1]; on Ephrin type-A receptor 5; in test [2]; in test [3]; in test [4]) was > 30 µM (inactive) throughout.

In the case of `C[C@@H](Oc1cc(-n2cnc3ccc(CN4CCN(C)CC4)cc32)sc1C(N)=O)c1ccccc1C(F)(F)F` [GSK-461364], the Kd in test [5], in test [1] and in test [3] was > 30 µM (inactive) throughout.

As to `CN(C[C@@H]1COCCO1)S(=O)(=O)Nc1ccc2ccc3ncc(-c4cnn(C)c4)cc3c(=O)c2c1` [MK-2461], the Kd (in test [5]; in test [1]; at Ephrin type-A receptor 5; in test [2]; in test [3]; in test [4]) was > 30 µM (inactive) each time.

On to `Cc1[nH]c(/C=C2\C(=O)Nc3ccccc32)c(C)c1CCC(=O)O` [ORANTINIB], for which the Kd (in test [6]; in test [5]; in test [1]; at Ephrin type-A receptor 5; in test [3]; in test [4]) was > 30 µM (inactive) in each case.

`NC(=O)c1c(OCc2c(F)cc(Br)cc2F)nsc1NC(=O)NCCCCN1CCCC1` [OSI-632]: the Kd was > 30 µM (inactive) in test [6]; > 30 µM (inactive) in test [5]; > 30 µM (inactive) in test [1]; > 30 µM (inactive) on Ephrin type-A receptor 5; 2.6 µM (active) in test [3]; > 30 µM (inactive) in test [4].

For the compound `O=C(NOCCO)c1cc(CN2OCCCC2=O)c(F)c(F)c1Nc1ccc(I)cc1F` [RO-4987655], the Kd in test [5], in test [1] and in test [3] was > 30 µM (inactive) in each case.

For the compound `N#CC[C@H](C1CCCC1)n1cc(-c2ncnc3[nH]ccc23)cn1` [RUXOLITINIB], the Kd in test [5], in test [1] and in test [3] was > 30 µM (inactive) throughout.

As for `Cc1cc(Nc2ncnc3ccc(NC4=NC(C)(C)CO4)cc23)ccc1Oc1ccn2ncnc2c1` [TUCATINIB], the Kd (in test [5]; in test [1]; on Ephrin type-A receptor 5; in test [2]; in test [3]; in test [4]) was > 30 µM (inactive) each time.

As for `Cn1ncc(Cl)c1-c1cc(C(=O)N[C@H](CN)Cc2ccc(F)c(F)c2)oc1Cl` [UPROSERTIB], the Kd (in test [5]; in test [1]; at Ephrin type-A receptor 5; in test [2]; in test [3]; in test [4]) was > 30 µM (inactive) throughout.
